These results are taken from patent publication US20100130457A1, “Phenothiazine Derivatives for Treatment of Asthma” (Immune Control, Inc., priority 2008, published 2010).

One data set has as its target muscarinic receptor M3 (Homo sapiens, UniProt P20309). Briefly: In vitro functional antagonism. It is filed as biochemical.
For another data set, the target named is T1, hERG (Homo sapiens, UniProt Q12809).
T1 construct: expressed in transfected cells
Briefly: Cardiac ion channels expressed in mammalian cells. In kind it is cell-based. The settings on record: 0.1 μM, 1 μm, 10 μm, and 100 μm. The text has this:
Voltage-gated K channels are activated by membrane depolarization. As with all voltage-gated ion channels, depolarization results in a conformational change in the S4 voltage sensor which contains positively charged amino acids. This conformational change triggers additional conformational changes leading to channel opening. Upon depolarization, these channels open, allowing the efflux of potassium from the cell, down its electrochemical gradient. They function in the heart and brain to repolarize the membrane potential and to terminate an action potential. A-type potassium currents are quickly inactivating potassium currents (eg, Kv4.2 and Kv1.4) and are important in the initial notch of repolarization in cardiac cells and the fast-spiking behavior of some neurons. Slowly inactivating channels provide more prolonged repolarization effects (eg, Kv1.5, Kv3.1, Kv2.1). hERG (human Ether-a-go-go Related Gene) channels are unusual voltage-gated potassium channels in that they are inwardly rectifying due to accelerated inactivation at positive voltages. hERG channels play a role in long-QT syndrome and block of hERG can precipitate torsades de pointe which may lead to fatal ventricular fibrillation. Screening of drugs for effects on hERG is desirable in investigational compounds. […]

SMILES strings stand for the structures. “Also recorded” adds a separate entry of the source.

Sequence of muscarinic receptor M3 (P20309 whole entry): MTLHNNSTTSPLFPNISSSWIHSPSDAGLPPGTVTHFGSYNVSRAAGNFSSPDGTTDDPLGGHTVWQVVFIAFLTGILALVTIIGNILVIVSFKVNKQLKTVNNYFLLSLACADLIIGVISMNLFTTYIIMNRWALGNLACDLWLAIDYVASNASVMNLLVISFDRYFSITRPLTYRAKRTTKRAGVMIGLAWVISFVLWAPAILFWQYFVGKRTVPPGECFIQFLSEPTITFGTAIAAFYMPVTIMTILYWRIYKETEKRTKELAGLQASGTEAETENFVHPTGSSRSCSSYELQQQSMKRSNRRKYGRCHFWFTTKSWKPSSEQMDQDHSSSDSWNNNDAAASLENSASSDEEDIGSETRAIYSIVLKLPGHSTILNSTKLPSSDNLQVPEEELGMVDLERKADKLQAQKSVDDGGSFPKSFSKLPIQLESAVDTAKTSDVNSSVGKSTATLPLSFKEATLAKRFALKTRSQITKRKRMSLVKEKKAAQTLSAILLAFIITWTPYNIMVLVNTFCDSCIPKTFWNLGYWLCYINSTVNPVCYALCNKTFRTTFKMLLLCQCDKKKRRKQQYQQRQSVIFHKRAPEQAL
T1 sequence (Q12809 whole entry): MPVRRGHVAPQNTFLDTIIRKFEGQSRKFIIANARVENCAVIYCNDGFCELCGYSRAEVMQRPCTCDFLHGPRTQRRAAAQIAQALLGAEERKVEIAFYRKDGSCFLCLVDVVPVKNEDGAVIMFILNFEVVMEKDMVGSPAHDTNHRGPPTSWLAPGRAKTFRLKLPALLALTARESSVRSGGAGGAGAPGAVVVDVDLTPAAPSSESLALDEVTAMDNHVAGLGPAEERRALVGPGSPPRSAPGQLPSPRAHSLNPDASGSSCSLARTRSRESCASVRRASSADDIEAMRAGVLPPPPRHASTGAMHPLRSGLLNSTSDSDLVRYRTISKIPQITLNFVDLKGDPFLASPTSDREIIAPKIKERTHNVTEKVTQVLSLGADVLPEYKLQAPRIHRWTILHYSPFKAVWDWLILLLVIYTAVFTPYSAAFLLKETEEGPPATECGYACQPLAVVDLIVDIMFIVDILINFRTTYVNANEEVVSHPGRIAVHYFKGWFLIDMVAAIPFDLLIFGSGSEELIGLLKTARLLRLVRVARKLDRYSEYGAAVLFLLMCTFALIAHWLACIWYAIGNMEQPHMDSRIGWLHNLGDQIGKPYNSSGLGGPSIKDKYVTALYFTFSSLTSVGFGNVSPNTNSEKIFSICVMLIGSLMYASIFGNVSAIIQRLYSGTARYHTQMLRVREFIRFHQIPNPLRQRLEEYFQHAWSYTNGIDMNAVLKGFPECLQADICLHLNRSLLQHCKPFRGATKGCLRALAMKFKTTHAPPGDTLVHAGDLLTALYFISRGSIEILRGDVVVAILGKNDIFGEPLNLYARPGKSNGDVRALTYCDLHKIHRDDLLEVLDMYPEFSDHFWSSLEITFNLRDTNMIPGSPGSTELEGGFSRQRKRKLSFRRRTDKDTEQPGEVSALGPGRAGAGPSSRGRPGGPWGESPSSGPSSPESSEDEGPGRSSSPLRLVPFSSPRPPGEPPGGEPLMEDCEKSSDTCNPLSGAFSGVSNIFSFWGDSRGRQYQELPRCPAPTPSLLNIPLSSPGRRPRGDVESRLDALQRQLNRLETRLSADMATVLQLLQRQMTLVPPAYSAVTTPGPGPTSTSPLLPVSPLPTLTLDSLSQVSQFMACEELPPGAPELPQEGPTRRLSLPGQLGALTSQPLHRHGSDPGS

As to `NCC(=O)NCCN1CCN(CCCN2c3ccccc3Sc3ccc(C(F)(F)F)cc32)CC1` [ICI-735], the “in vitro functional antagonism for muscarinic receptor M3” value on muscarinic receptor M3 is reported as “weak in vitro functional antagonism; also recorded: weak or undetectable”. Besides, on hERG, the “block of hERG” value is given as “able to block”.
